Entries after “also recorded” stand apart in the source; their conditions may differ. Where a name gives a salt, the structure may show the parent alone. Read-outs that look alike come from different tables or passages of the source. Where a SMILES comes first, the peptide text is derived from it. Bridges are numbered along the chain shown (N, C = ends). [ ]: non-standard residue; d: D form. The star is where a group is joined. Octanoyl(6-Me) = CCC(C)CCCCC(=O)*; Dab = NCC[CH](N)C(=O)O

One test deals with Mtb DNA topoisomerase I (Mycobacterium tuberculosis, UniProt P9WG49). In kind it is biochemical. The note with it: for screening result in words (Mtb topo I HTS): interpretation of Table 4.
Mtb DNA topoisomerase I, sequence (P9WG49 whole entry): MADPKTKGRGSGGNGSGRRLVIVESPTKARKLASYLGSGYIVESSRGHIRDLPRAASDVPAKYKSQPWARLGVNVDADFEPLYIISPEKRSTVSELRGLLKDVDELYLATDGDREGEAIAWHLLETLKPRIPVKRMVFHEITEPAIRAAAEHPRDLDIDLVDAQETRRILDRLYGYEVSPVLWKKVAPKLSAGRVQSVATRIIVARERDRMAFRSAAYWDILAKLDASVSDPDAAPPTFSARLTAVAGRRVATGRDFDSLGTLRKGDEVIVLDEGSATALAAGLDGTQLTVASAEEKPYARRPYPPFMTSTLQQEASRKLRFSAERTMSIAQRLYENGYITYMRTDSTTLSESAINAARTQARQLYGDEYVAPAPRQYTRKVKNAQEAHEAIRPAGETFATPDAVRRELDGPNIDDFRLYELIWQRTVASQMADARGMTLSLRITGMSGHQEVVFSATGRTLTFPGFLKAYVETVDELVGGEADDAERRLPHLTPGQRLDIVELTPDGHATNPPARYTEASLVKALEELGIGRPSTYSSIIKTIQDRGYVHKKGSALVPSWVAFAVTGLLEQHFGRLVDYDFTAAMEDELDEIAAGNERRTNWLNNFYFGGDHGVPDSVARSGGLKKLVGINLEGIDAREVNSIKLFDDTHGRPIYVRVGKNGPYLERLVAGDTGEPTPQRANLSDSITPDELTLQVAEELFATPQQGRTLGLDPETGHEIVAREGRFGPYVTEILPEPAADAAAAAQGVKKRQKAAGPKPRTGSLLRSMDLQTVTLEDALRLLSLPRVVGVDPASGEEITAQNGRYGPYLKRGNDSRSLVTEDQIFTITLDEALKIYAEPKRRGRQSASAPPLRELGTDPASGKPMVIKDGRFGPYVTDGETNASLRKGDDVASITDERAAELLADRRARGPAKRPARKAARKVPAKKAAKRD
Another test deals with E. coli DNA gyrase (Escherichia coli, UniProt P0AES4+P0AES6). Type of test: biochemical. The conditions noted are these: for result in words, pathogen box screen for E. coli DNA gyrase: 400 compounds, several rounds of screening; for hit call, gyrase HTS (FIG. 7): 20 μM, triplicate, Z′ 0.64, S/B 4.3.
E. coli DNA gyrase, sequence (P0AES4 whole entry, one chain of several): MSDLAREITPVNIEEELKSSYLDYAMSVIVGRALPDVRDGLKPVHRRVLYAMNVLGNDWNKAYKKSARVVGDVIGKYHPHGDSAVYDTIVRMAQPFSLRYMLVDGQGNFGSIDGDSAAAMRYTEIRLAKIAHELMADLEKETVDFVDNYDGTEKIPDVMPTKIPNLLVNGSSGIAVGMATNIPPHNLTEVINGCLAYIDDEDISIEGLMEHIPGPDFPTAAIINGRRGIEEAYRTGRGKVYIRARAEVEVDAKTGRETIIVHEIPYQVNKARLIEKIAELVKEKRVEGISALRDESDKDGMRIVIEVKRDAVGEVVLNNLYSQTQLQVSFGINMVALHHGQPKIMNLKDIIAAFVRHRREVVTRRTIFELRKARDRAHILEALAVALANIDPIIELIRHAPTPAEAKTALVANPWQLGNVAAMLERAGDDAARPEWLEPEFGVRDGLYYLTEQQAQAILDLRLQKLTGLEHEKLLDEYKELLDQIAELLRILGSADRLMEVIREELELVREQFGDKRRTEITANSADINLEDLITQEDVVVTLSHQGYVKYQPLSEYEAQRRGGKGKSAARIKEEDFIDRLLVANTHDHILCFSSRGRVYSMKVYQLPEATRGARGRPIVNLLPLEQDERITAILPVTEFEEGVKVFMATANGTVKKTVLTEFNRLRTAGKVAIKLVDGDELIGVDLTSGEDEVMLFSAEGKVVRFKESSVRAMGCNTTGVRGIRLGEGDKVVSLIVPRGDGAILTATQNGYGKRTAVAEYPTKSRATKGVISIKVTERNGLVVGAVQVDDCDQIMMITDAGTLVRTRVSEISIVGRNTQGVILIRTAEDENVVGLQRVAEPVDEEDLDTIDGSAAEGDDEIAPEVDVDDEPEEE
Test [1] deals with E. coli DNA topoisomerase I (Escherichia coli, UniProt P06612). Type of test: biochemical. The note with it: for screening result in words (E. coli topo I HTS): interpretation of Table 5 / FIG. 11.
E. coli DNA topoisomerase I, sequence (P06612 whole entry): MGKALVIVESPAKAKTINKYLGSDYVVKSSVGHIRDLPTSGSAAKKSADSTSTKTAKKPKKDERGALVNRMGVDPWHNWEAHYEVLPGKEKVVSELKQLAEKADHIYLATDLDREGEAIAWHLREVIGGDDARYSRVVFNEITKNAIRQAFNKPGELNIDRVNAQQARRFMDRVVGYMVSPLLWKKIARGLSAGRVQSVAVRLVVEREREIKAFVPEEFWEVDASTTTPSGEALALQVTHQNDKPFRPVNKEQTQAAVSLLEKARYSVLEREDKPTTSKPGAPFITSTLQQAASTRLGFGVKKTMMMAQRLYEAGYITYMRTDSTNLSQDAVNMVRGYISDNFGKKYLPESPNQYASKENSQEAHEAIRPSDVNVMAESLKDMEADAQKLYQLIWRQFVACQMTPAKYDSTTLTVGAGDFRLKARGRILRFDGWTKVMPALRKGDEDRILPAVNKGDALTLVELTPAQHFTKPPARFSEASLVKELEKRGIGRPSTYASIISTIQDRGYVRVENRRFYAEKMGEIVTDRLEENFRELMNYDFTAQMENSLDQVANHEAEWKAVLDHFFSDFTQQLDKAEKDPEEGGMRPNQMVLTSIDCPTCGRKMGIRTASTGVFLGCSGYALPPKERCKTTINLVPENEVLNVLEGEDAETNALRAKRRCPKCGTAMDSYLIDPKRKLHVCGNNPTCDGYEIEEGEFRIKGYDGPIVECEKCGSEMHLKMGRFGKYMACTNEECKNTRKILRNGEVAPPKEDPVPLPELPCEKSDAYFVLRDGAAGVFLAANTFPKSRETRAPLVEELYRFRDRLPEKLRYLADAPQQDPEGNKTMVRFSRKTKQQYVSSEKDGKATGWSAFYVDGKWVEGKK
In test [2] the target is variola virus DNA topoisomerase 1 (vTopI) (Variola virus, UniProt P32989). Type of test: biochemical. The conditions noted are these: for screening result in words (Variola topo I HTS): interpretation of Table 6.
variola virus DNA topoisomerase 1 (vTopI), sequence (P32989 whole entry, looked up): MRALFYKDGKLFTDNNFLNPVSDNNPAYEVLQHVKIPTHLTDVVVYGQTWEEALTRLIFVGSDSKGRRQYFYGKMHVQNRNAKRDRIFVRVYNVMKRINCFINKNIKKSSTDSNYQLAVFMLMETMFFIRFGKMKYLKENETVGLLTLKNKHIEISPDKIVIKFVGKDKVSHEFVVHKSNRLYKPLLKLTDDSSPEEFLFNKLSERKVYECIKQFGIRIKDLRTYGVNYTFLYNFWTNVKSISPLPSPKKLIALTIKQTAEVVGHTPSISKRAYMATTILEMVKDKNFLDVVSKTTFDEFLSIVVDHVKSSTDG
Another test deals with MtbTopI (Mycobacterium tuberculosis, UniProt P9WG49). Put plainly: MtbTopI inhibition test of FIG. 14. In kind it is biochemical.
MtbTopI, sequence (P9WG49 whole entry): as the sequence (P9WG49 whole entry) above
In test [3] the target is T1, human DNA topoisomerase I (HuTopI) (Homo sapiens, UniProt P11387).
T1 sequence (P11387 1-765): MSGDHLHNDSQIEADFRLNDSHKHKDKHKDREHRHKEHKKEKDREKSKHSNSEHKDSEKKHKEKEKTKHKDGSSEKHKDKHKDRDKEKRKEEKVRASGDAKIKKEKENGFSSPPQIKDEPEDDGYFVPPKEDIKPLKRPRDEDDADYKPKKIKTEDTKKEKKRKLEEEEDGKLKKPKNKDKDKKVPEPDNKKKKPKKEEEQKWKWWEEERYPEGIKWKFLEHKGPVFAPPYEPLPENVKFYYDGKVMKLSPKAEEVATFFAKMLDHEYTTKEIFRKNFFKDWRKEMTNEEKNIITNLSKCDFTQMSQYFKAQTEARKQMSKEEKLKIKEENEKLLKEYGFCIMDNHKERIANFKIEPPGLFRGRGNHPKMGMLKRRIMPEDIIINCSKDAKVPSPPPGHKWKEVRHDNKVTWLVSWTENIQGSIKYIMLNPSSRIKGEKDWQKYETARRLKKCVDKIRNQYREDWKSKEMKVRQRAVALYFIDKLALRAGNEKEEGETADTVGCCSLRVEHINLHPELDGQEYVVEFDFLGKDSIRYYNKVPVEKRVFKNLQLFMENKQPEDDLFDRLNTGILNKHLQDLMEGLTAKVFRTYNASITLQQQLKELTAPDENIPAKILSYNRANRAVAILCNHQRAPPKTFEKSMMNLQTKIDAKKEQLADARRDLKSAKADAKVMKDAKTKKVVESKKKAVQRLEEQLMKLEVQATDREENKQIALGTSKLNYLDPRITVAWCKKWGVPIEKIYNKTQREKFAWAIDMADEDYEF
Put plainly: Human TopI-catalyzed DNA relaxation of sc pAB1_FL905 (fluorescence, FIG. 14). Type of test: biochemical. The note with it: 25 nM huTopI, sc pAB1_FL905, λem=521 nm, λex=482 nm; read-out: IC50 for inhibition of HuTopI activities.

For the next test, the system named is supercoiled plasmid pAB1. Put plainly: T5 exonuclease-based HTS assay for DNA intercalators (sc pAB1, no topoisomerase).

Turning to `O=C(O)c1cn(C2CC2)c2cc(N3CCNCC3)c(F)cc2c1=O` [Ciprofloxacin], on Mtb DNA topoisomerase I, the “fluorescence, HTS screening of 50-compound library for Mtb DNA topoisomerase 1 inhibitors” value turned out to be 1493. Also, on E. coli DNA gyrase, the “fluorescence, HTS screening of 50-compound library for E. coli DNA gyrase inhibitors” value (from here on “fluorescence … for E. coli DNA gyrase inhibitors”) amounted to 1803 and the “screening result in words (Table 2, gyrase HTS)” value is listed as “DNA intercalators”. Further, the “fluorescence, HTS screening of 50-compound library for E. coli DNA topoisomerase 1 inhibitors” value in test [1] was 1191.
Turning to `CCN1CCN(c2cc3c(cc2F)c(=O)c(C(=O)O)cn3C2CC2)CC1` [Enrofloxacin], the “screening result in words (Table 2, gyrase HTS)” value at E. coli DNA gyrase (interpretation of Table 2) is reported as “DNA intercalators”. For the same compound, the “screening result in words (Variola topo I HTS)” value in test [2] is “can inhibit Variola topo I”.
`NCC(=O)O` [Glycine]: the “fluorescence, HTS screening of 50-compound library for Mtb DNA topoisomerase 1 inhibitors” value at Mtb DNA topoisomerase I is listed as 1321. In addition, the “fluorescence … for E. coli DNA gyrase inhibitors” value at E. coli DNA gyrase is 644. Also, the “fluorescence, HTS screening of 50-compound library for E. coli DNA topoisomerase 1 inhibitors” value in test [1] was 1589.
As for `NCCCC[C@H](N)C(=O)O` [L-lysine], in test [2], the “fluorescence, HTS screening of 50-compound library (Table 6; vTopI)” value (from here on “fluorescence, HTS screening … (Table 6; vTopI)”) was found to be 1028.
For `C[C@H]1COc2c(N3CCN(C)CC3)c(F)cc3c(=O)c(C(=O)O)cn1c23` [Levofloxacin], the “screening result in words (Table 2, gyrase HTS)” value at E. coli DNA gyrase (interpretation of Table 2) is listed as “DNA intercalators”. Besides, the “result in words, pathogen box screen for E. coli DNA gyrase” value on E. coli DNA gyrase is on record as “inhibit E. coli DNA gyrase activities”.
In the case of `CCn1cc(C(=O)O)c(=O)c2cc(F)c(N3CCNC(C)C3)c(F)c21` (centres unmarked) [Lomefloxacin], at E. coli DNA gyrase (interpretation of Table 2), the “screening result in words (Table 2, gyrase HTS)” value is on record as “DNA intercalators”.
`NC(N)=Nc1ccc(-c2ccc(-c3ccc(N=C(N)N)cc3Cl)o2)c(Cl)c1` [MMV688179]: on E. coli DNA gyrase, the “result in words, pathogen box screen for E. coli DNA gyrase” value was “inhibit E. coli DNA gyrase activities”.
As for `CCCCCCCCOC(=O)c1cc(O)c(O)c(O)c1` [NSC97419], the “screening result in words (Mtb topo I HTS)” value on Mtb DNA topoisomerase I was “new Mtb DNA topI inhibitors; also recorded: can inhibit Mtb topo I”. Also, the “screening result in words (Variola topo I HTS)” value in test [2] is on record as “can inhibit Variola topo I”. Moreover, the “screening result in words (E. coli topo I HTS)” value in test [1] was “can inhibit E. coli topo I”.
As usually defined, the IC50 is the concentration that inhibits the measured activity by half. Regarding `O=C1C=C(NCCc2cc(Br)c(O)c(Br)c2)C(=O)c2ncccc21` [NSC668394], the “screening result in words (Mtb topo I HTS)” value at Mtb DNA topoisomerase I was “new Mtb DNA topI inhibitors; also recorded: can inhibit Mtb topo I”. Also, the “inhibition of MtbTopI in words (FIG. 14B and D)” value at MtbTopI is reported as “did not inhibit”. Moreover, the 50% inhibitory concentration (IC50) in test [3] stood at 5 µM. Also, in test [1], the “screening result in words (E. coli topo I HTS)” value is “new E. coli DNA Topo I inhibitor; also recorded: can inhibit E. coli topo I”.
For the compound `CCn1cc(C(=O)O)c(=O)c2cc(F)c(N3CCNCC3)cc21` [Norfloxacin], on E. coli DNA gyrase (interpretation of Table 2), the “screening result in words (Table 2, gyrase HTS)” value was “DNA intercalators”.
Regarding `CCC(C)CCCCC(=O)NC(CCN)C(=O)NC(C(=O)NC(CCN)C(=O)NC1CCNC(=O)C(C(C)O)NC(=O)C(CCN)NC(=O)C(CCN)NC(=O)C(CC(C)C)NC(=O)C(Cc2ccccc2)NC(=O)C(CCN)NC1=O)C(C)O` (centres unmarked) [Polymyxin B sulfate salt] ({Octanoyl(6-Me)}-[Dab]T[Dab][Dab][Dab]FL[Dab][Dab]T; lactam 4-C; configuration not given here), the “fluorescence, HTS screening … (Table 6; vTopI)” value in test [2] came to 1744.
On the same count and under the same terms, the figure for `CN[C@H](CC(C)C)C(=O)N[C@H]1C(=O)N[C@@H](CC(N)=O)C(=O)N[C@H]2C(=O)N[C@H]3C(=O)N[C@H](C(=O)N[C@H](C(=O)O)c4cc(O)cc(O)c4-c4cc3ccc4O)[C@H](O)c3ccc(c(Cl)c3)Oc3cc2cc(c3O[C@@H]2O[C@H](CO)[C@@H](O)[C@H](O)[C@H]2OC2C[C@](C)(N)[C@H](O)[C@H](C)O2)Oc2ccc(cc2Cl)[C@H]1O` (some centres unmarked) [Vancomycin] is 1398.
In the case of `Cc1ncc(C[n+]2csc(CCO)c2C)c(N)n1` [Vitamine B1], the “fluorescence, HTS screening of 50-compound library for Mtb DNA topoisomerase 1 inhibitors” value at Mtb DNA topoisomerase I was 1224. For the same compound, on E. coli DNA gyrase, the “fluorescence … for E. coli DNA gyrase inhibitors” value was 467. In test [1], the “fluorescence, HTS screening of 50-compound library for E. coli DNA topoisomerase 1 inhibitors” value came out at 1441.
With `CC[C@@]1(O)C(=O)OCc2c1cc1n(c2=O)Cc2cc3ccccc3nc2-1` [camptothecin], the “fluorescence, HTS screening … (Table 6; vTopI)” value in test [2] is 1712.
`CS[C@H]1SC[C@H]2C(=O)N(C)[C@@H](C(C)C)C(=O)OC[C@@H](NC(=O)c3cnc4ccccc4n3)C(=O)N[C@@H](C)C(=O)N(C)[C@@H]1C(=O)N(C)[C@@H](C(C)C)C(=O)OC[C@@H](NC(=O)c1cnc3ccccc3n1)C(=O)N[C@@H](C)C(=O)N2C` [echinomycin]: on E. coli DNA gyrase, the “hit call, gyrase HTS (FIG. 7)” value was “hits”. The “screening result in words (Table 2, gyrase HTS)” value at E. coli DNA gyrase (interpretation of Table 2) is on record as “DNA intercalators”. In addition, the “fluorescence, HTS screening … (Table 6; vTopI)” value in test [2] worked out at 1238.
Take `CCOc1ccc2nc3cc(N)ccc3c(N)c2c1` [ethacridine]: at E. coli DNA gyrase, the “hit call, gyrase HTS (FIG. 7)” value is “hits”. Further, the “screening result in words (Table 2, gyrase HTS)” value at E. coli DNA gyrase (interpretation of Table 2) is on record as “DNA intercalators”.
Consider `NC[C@H]1O[C@H](O[C@H]2[C@H](O)[C@@H](O[C@H]3O[C@H](CO)[C@@H](O)[C@H](N)[C@H]3O)[C@H](N)C[C@@H]2N)[C@H](O)[C@@H](O)[C@@H]1O` [kanamycin], for which the “fluorescence, HTS screening of 50-compound library for Mtb DNA topoisomerase 1 inhibitors” value at Mtb DNA topoisomerase I turned out to be 1466. Also, the “fluorescence … for E. coli DNA gyrase inhibitors” value on E. coli DNA gyrase was 510. In test [1], the “fluorescence, HTS screening of 50-compound library for E. coli DNA topoisomerase 1 inhibitors” value is 1719.
Consider `c1ccncc1` [pyridine], for which, on Mtb DNA topoisomerase I, the “fluorescence, HTS screening of 50-compound library for Mtb DNA topoisomerase 1 inhibitors” value amounted to 1380. Besides, on E. coli DNA gyrase, the “fluorescence … for E. coli DNA gyrase inhibitors” value is 568. Besides, the “fluorescence, HTS screening of 50-compound library for DNA intercalators” value in the test with supercoiled plasmid pAB1 is given as 218. In test [1], the “fluorescence, HTS screening of 50-compound library for E. coli DNA topoisomerase 1 inhibitors” value worked out at 1339.
On to `Nc1ccc(S(N)(=O)=O)cc1` [sulfanilamide], for which the “fluorescence, HTS screening of 50-compound library for Mtb DNA topoisomerase 1 inhibitors” value at Mtb DNA topoisomerase I is recorded as 1523. In addition, the “fluorescence … for E. coli DNA gyrase inhibitors” value at E. coli DNA gyrase was 558. Also, in test [1], the “fluorescence, HTS screening of 50-compound library for E. coli DNA topoisomerase 1 inhibitors” value turned out to be 1426.
In the case of `Cc1ccc(C(=O)Nc2ccc(S(=O)(=O)O)c3cc(S(=O)(=O)O)cc(S(=O)(=O)O)c23)cc1NC(=O)c1cccc(NC(=O)Nc2cccc(C(=O)Nc3cc(C(=O)Nc4ccc(S(=O)(=O)O)c5cc(S(=O)(=O)O)cc(S(=O)(=O)O)c45)ccc3C)c2)c1` [suramin], the “screening result in words (Mtb topo I HTS)” value at Mtb DNA topoisomerase I was “can inhibit Mtb topo I”. In addition, the “hit call, gyrase HTS (FIG. 7)” value at E. coli DNA gyrase was “hits”. Besides, the “screening result in words (Table 2, gyrase HTS)” value on E. coli DNA gyrase (interpretation of Table 2) is reported as “DNA intercalators”. The “screening result in words (Variola topo I HTS)” value in test [2] was “can inhibit Variola topo I”. Besides, in test [1], the “screening result in words (E. coli topo I HTS)” value is reported as “can inhibit E. coli topo I”.
For the compound `CC[C@@]1(O)C(=O)OCc2c1cc1n(c2=O)Cc2cc3c(CN(C)C)c(O)ccc3nc2-1` [topotecan], the “screening result in words (Mtb topo I HTS)” value at Mtb DNA topoisomerase I is “new Mtb DNA topI inhibitors; also recorded: can inhibit Mtb topo I”.
Regarding citrinin, the “fluorescence, HTS screening … (Table 6; vTopI)” value in test [2] was found to be 1311.

Source of the values: patent US11732286B2, “T5 exonuclease-based method to identify DNA topoisomerase inhibitors” (The Florida International University Board of Trustees, priority 2020, dated 2023).
